Key:
PCP-treated rats [1] = test: Novel object recognition test, sub-chronic PCP model of schizophrenia; assay type: in vivo, rat; conditions: risperidone 0.1 mg/kg i.p. 60 min prior to testing
Procedure: (§1) Female hooded-Lister rats were used for this experiment. Rats were housed in groups of 5 under standard laboratory conditions under a 12 hr light: dark cycle, lights on at 0700 hr. Testing was carried out in the light phase.
(§2) Rats were randomly assigned to two treatment groups and treated with vehicle, n=20 (distilled water, i.p.) or Phencyclidine hydrochloride (PCP), n=100 (2 mg/kg, i.p. twice daily for 7-days). PCP was dissolved in distilled water. This was followed by a 7-day wash out period before the rats were tested following acute treatment with CBDV, risperidone or vehicle.
(§3) Risperidone (0.1 mg/kg) was dissolved in a minimum volume of acetic acid, made up to volume with distilled water and pH adjusted to 6 with 0.1M NaOH and administered via the i.p. route in a volume of 1 ml/kg, 60 min prior to testing.
(§4) CBDV at 2, 10 or 20 mg/kg was dissolved in 2:1:17 (Ethanol:Cremofor:Saline 0.9%) and administered via the i.p. route in a volume of 5 ml/kg, 60 min prior to testing.
Rats were allowed to habituate to the empty test box and the behavioural test room environment for 1h on day 1. Prior to behavioural testing on day 2 rats are given a further 3 min habituation.
Following the 3 min habituation period, the rats are given two 3 min trials (T1 and T2) which are separated by a 1 min inter-trial interval in the home cage during which the objects are changed. Behaviour in all trials was recorded on video for subsequent blind scoring.
In this trial, the animals are allowed to explore two identical objects (A1 and A2) for 3 min.
In this trial, the animals explore a familiar object (A) from T1 and a novel object (B) for 3 min. The familiar object presented during T2 is a duplicate of the object presented in T1 in order to avoid any olfactory trails.
The object exploration is defined by animals licking, sniffing or touching the object with the forepaws whilst sniffing, but not leaning against, turning around, standing or sitting on the object. The exploration time (s) of each object (A, B, familiar and novel) in each trial are recorded using two stopwatches and the following factors are calculated:
Discrimination index (DI), which is calculated as shown below: […]

PCP-treated rats [2] = test: Social interaction test, sub-chronic PCP model of schizophrenia; assay type: in vivo, rat
Procedure: as §1, §2, §3, §4
The social interaction test is performed in an open-field comprising a square box made of Plexiglas (52×52×31 cm) placed 27 cm above the floor on a moveable trolley. The floor of the box is white with black gridlines forming 9 identical squares on it. All other walls are black. A video camera connected to a video recorder and monitor is positioned above the box. The object used for the test consists of a heavy structure made of metal that cannot be displaced by the animals.
The rats were habituated to the test environment and arena prior to the test day. Habituation consists of placing all rats from one cage together in the empty test arena for one hour for three days including the day before the test day.
Pairs of rats, weight matched (15-20 g) and unfamiliar to each other, receiving either no treatment (n=70 “conspecific” rats) or different treatments (PCP and Vehicle; n=10 “tested” rats or PCP+Drug; n=50 “tested” rats) were placed in the test arena together for 10 min and behaviour assessed as described below.
An inanimate object such as an unopened drinks can is also placed in the centre of the arena to measure any differences in interaction of the test animal with an unfamiliar animal as opposed to an unfamiliar object. After each 10 minute trial, the object and arena are cleaned with 10% alcohol in an attempt to remove traces of any olfactory cues. All testing is carried out under standard room illumination levels (70 cd/m2).
Behaviour in both trials was recorded on video for subsequent blind scoring. A behavioural scoring software program (Hindsight, Scientific programming services) is used to score the following parameters: • Investigative sniffing behaviour: sniffing the conspecific's snout or parts of the body including the anogenital region; • Following: rat moves after the conspecific i.e. a vehicle treated rat of the same species, around the arena; • Avoidances: actively turning away when approached by the conspecific animal; • Investigation of object: exploration of object placed in centre of the arena; and • Locomotor activity is recorded by counting the total number of sectors (i.e. lines) crossed by the test rat. Results

PCP-treated rats [3] = conditions: background statement; cited from earlier work

Cc1nc2n(c(=O)c1CCN1CCC(c3noc4cc(F)ccc34)CC1)CCCC2 [risperidone, reference compound]
time spent investigating two identical objects in Trial 1 (FIG. 16A) (PCP-treated rats [1]): no real preference
PCP effects on social interaction (sniffing, following, avoiding) (FIG. 18) (PCP-treated rats [2]; risperidone 0.1 mg/kg i.p.): reverse these effects in a statistically significant manner
time spent following the other rat (FIG. 18B) (PCP-treated rats [2]; risperidone 0.1 mg/kg, time increased over PCP alone): not seen to be significant
PCP-induced deficit in the novel object recognition (NOR) test (PCP-treated rats [3]): can attenuate the deficit

Reference: patent US11752111B2, “Use of cannabidivarin in the treatment of autism spectrum disorder, associated disorders and schizophrenia” (GW Research Limited, priority 2016, dated 2023)
